Experimental data reported in ChEMBL document CHEMBL3632480, “Optimization of an indazole series of selective estrogen receptor degraders: Tumor regression in a tamoxifen-resistant breast cancer xenograft” (Bioorg Med Chem Lett, 2015).

What was measured:
MCF7 [1] = assay: Decrease in estrogen receptor alpha level in human MCF7 cells after 4 hrs by in-cell western assay relative to fulvestrant; format: functional; conditions: MCF7, 4 h
MCF7 [2] = assay: Cytotoxicity against human MCF7 cells assessed as decrease in cell viability after 5 days by celltiterGlo assay; format: functional, cell-based; conditions: MCF7, 120 h
MCF7 [3] = assay: Decrease in estrogen receptor alpha level in human MCF7 cells after 4 hrs by in-cell western assay; format: functional, cell-based; conditions: MCF7, 4 h

Structure (SMILES) | EC50 (MCF7 [3]) | Emax (MCF7 [1]) | IC50 (MCF7 [2])
CC/C(=C(/c1ccc(/C=C/C(=O)O)cc1)c1ccc2[nH]ncc2c1OC)c1ccccc1 | 19 nM | 91% | 55 nM
CC/C(=C(/c1ccc(/C=C/C(=O)O)cc1)c1ccc2[nH]ncc2n1)c1ccccc1 | 20 nM | 88% | 33 nM
COC/C(=C(/c1ccc(/C=C/C(=O)O)cc1)c1ccc2[nH]ncc2c1)c1ccccc1 | 35 nM | 86% | 88 nM
CCCC/C(=C(/c1ccc(/C=C/C(=O)O)cc1)c1ccc2[nH]ncc2c1)c1ccccc1 | 11 nM | 92% | 10 nM
CC/C(=C(/c1ccc(/C=C/C(=O)O)cc1)c1cc(C)c2[nH]ncc2c1)c1ccccc1 | 19 nM | 89% | 59 nM
COCC/C(=C(/c1ccc(/C=C/C(=O)O)cc1)c1ccc2[nH]ncc2c1)c1ccccc1 | 47 nM | 92% | 63 nM
CC/C(=C(/c1ccc(/C=C/C(=O)O)cc1)c1ccc2[nH]ncc2c1)c1ccccc1 |  | 90% | 7.2 nM
CC/C(=C(/c1ccc(/C=C/C(=O)O)cc1)c1ccc2[nH]ncc2c1C)c1ccccc1 | 13 nM | 90% | 50 nM
C[C@]12CC[C@@H]3c4ccc(O)cc4C[C@@H](CCCCCCCCC[S+]([O-])CCCC(F)(F)C(F)(F)F)[C@H]3[C@@H]1CC[C@@H]2O (stereo not given in full) [FULVESTRANT] | 0.4 nM | 100% | 0.6 nM
O=C(O)/C=C/c1ccc(/C(=C(/CCO)c2ccccc2)c2ccc3[nH]ncc3c2)cc1 | > 1000 nM |  | > 1000 nM

Continued, in another order:

EC50 (MCF7 [3]) | Structure (SMILES) | Emax (MCF7 [1]) | IC50 (MCF7 [2])
7.6 nM | O=C(O)/C=C/c1ccc(/C(=C(\c2ccccn2)C2CCC2)c2ccc3[nH]nc(F)c3c2)cc1 | 90% | 22 nM
25 nM | O=C(O)/C=C/c1ccc(/C(=C(\c2ccccc2)C2CCCCC2)c2ccc3[nH]ncc3c2)cc1 | 86% | 64 nM
0.6 nM | O=C(O)/C=C/c1ccc(/C(=C(\c2ccc(F)cc2Cl)C2CCC2)c2ccc3[nH]nc(F)c3c2)cc1 | 91% | 2 nM
26 nM | C/C(=C(/c1ccc(/C=C/C(=O)O)cc1)c1ccc2[nH]ncc2c1)c1ccccc1 | 92% | 40 nM
18 nM | CC/C(=C(/c1ccc(/C=C/C(=O)O)cc1)c1cc(Cl)c2[nH]ncc2c1)c1ccccc1 | 92% | 56 nM
1.4 nM | O=C(O)/C=C/c1ccc(/C(=C(/CCCl)c2ccccc2)c2ccc3[nH]ncc3c2)cc1 | 90% | 9 nM
9.3 nM | O=C(O)/C=C/c1ccc(/C(=C(\c2ccccc2)C2CCCC2)c2ccc3[nH]ncc3c2)cc1 | 90% | 10 nM
2.8 nM | O=C(O)/C=C/c1ccc(/C(=C(\c2ccccc2)C2CC2)c2ccc3[nH]ncc3c2)cc1 | 89% | 13 nM
3 nM | O=C(O)/C=C/c1ccc(/C(=C(\c2ccc(C(F)(F)F)cc2Cl)C2CCC2)c2ccc3[nH]nc(F)c3c2)cc1 | 94% | 8.2 nM
1.4 nM | O=C(O)/C=C/c1ccc(/C(=C(/CCF)c2ccccc2)c2ccc3[nH]ncc3c2)cc1 | 91% | 2.1 nM
6.4 nM | CC/C(=C(/c1ccc(/C=C/C(=O)O)cc1)c1cc(F)c2[nH]ncc2c1)c1ccccc1 | 92% | 7.5 nM
0.6 nM | O=C(O)/C=C/c1ccc(/C(=C(\c2ncc(F)cc2Cl)C2CCC2)c2ccc3[nH]nc(F)c3c2)cc1 | 89% | 1.7 nM
3.1 nM | O=C(O)/C=C/c1ccc(/C(=C(\c2ccccc2)C(F)(F)F)c2ccc3[nH]ncc3c2)cc1 | 92% | 5.5 nM
0.3 nM | O=C(O)/C=C/c1ccc(/C(=C(\c2ccccc2)C2CCC2)c2ccc3[nH]ncc3c2)cc1 | 89% | 1.4 nM
